The numbers were not newly measured in patent US20080214876A1, “Process for Preparation of Pharmaceutically Pure Anhydrous Calcipotriol” (INSTYTUT FARMACEUTYCZNY, priority 2004, published 2008), which cites them from elsewhere.

For data set [1] the following is noted: pharmaceutical formulations.
For data set [2], the system named is calcium metabolism. As to conditions: rats; relative to calcitriol; Binderup, Bramm, Biochem. Pharmacol. 37, 889 (1988).
For data set [3], the system named is epidermal keratinocytes. The conditions noted are these: literature: Castelijins et al., Acta Derm. Venereol. 79, 111 (1999).

Each structure is given as a SMILES string.

Take `C=C1/C(=C\C=C2/CCC[C@]3(C)[C@@H]([C@H](C)/C=C/[C@@H](O)C4CC4)CC[C@@H]23)C[C@@H](O)C[C@@H]1O` [calcipotriol, (1α,3β3,5Z,7E,22E,24S)-24-cyclopropyl-9,10-secochola-5,7,10(19),22-tetraene-1,3,24-triol]: the “stability in some solutions” value in data set [1] is recorded as “poor stability”. For the same molecule, the “weaker effect on calcium metabolism compared to calcitriol” value in data set [2] was 100-200 fold. The “activity in inhibiting undesirable proliferation of epidermal keratinocytes” value in data set [3] is “strong activity”. Turning to `C=C1/C(=C\C=C2/CCC[C@]3(C)[C@@H]([C@H](C)CCCC(C)(C)O)CC[C@@H]23)C[C@@H](O)C[C@@H]1O` [calcitriol, 1,25-dihydroxycholecalciferol], in data set [3], the “activity in inhibiting undesirable proliferation of epidermal keratinocytes” value is listed as “strong activity”.

Regarding `C=C1/C(=C\C=C2/CCC[C@]3(C)[C@@H]([C@H](C)CC[C@@H](O)C(C)C)CC[C@@H]23)C[C@@H](O)C[C@@H]1O` [tacalcitol, 1α,24R-dihydroxycholecalciferol], the “activity in inhibiting undesirable proliferation of epidermal keratinocytes” value in data set [3] is “strong activity”.
